From patent publication US8299252B2, “Pyrazolopyridine and pyrrolopyridine multikinase inhibitors” (Chugai Seiyaku Kabushiki Kaisha, priority 2005, dated 2012)
Values after ≈ are worked out from the molar mass of the structure shown.

Assays:
[1] = tested on: tube formation of human-derived vascular endothelial cells (HUVEC); experiment: Tube formation inhibition test (angiogenesis assay kit, KURABO); format: cell-based; settings: 264 h, final concentration 6.4 nM, 11 days, read-out: Tube formation inhibition ratio (%)
Method: The formed tubes were stained with a tube staining kit CD31 (KURABO). The stain image of each well was taken under a microscope, stored in an image file, and measured for the tube formation area using angiogenesis quantitative analysis software of KURABO. The inhibition ratio % of each test compound added to the well was calculated, provided that the ratio of the reference was 100%.

[2] = Pharmacokinetics test, oral administration; format: in vivo; settings: female, Balb/c nude, mouse, 100 mg/kg, plasma
Method: The compound according to the present invention and known Compound A were measured for pharmacokinetics. Each of the test compounds was orally administered to each female Balb/c nude mouse at a dose of 100 mg/kg, and concentrations of the compound in plasma 0.5, 2, 7, and 24 hours after the administration were quantitatively measured by LC-MS-MS.

[3] = Solubility in fasted state simulated intestinal fluid; format: physicochemical; settings: pH 6.5, fassif, kinetic from dmso stock, fasted state simulated intestinal fluid (pH6.5), 37° C.
Method: 2 μL of each dimethyl sulfoxide solutions containing test compounds were dispensed into wells of a 96-well plate, and 200 μL of fasted state simulated intestinal fluid (pH6.5) was added to each well. The plate was shaken at 37° C. for 20 hours. The solution was filtered through a membrane filter, and 101 μL of the filtrate was transferred to a UV plate, followed by addition of 100 μL of a solution mixture of ethanol:water=2:1 thereto. Separately, as a standard, 101 μL of a solution prepared by 2 μL of a dimethyl sulfoxide solution, 4 μL of dimethyl sulfoxide, 400 μL of ethanol, and 200 μL of water was transferred to a UV plate, and 100 μL of fasted state simulated intestinal fluid (pH6.5) was added thereto. The solubility was calculated by the following expression: Solubility=[(absorbance of test solution)−blank]/[(absorbance of standard solution)−blank]×165 μM (165 μM is the concentration of the standard solution) Composition of the fasted state simulated intestinal fluid (pH6.5)
The composition was prepared in compliance with the description in E. Galia, et al., Pharm. Res. 1998, 698.
Taurocholic acid (161 mg), L-α-phosphatidylcholine (59 mg), potassium dihydrogen phosphate (0.39 g), and potassium chloride (0.77 g) were added to about 90 mL of water. The resulting solution was adjusted to a pH of 6.5 with a sodium hydroxide aqueous solution and then diluted to a volume of 100 mL with water. The solution was filtered through a membrane filter.

[4] = tested on: human colon cancer cell line HCT116 cells; experiment: Cell proliferation inhibitory activity, HCT116; format: cell-based; settings: Homo sapiens, HCT-116, read-out: 50% proliferation inhibitory concentration (IC50 value) HCT116; HCT116, 72 hours, WST-8
Method: (§1) The compounds according to the present invention were measured for cancer cell proliferation inhibitory activity and human umbilical vein endothelial cell (HUVEC) proliferation inhibitory activity.
(§2) Test compounds were serially diluted with dimethyl sulfoxide and then diluted 50 times with Ca^2+- and Mg^2+-free phosphate-buffered saline, and 20 μL of each of the resulting solution was dispensed into a 96-well plate. […] Each cell suspension contains approximately 3000 cells/180 μL. These cell suspensions were dispensed to the plate containing the test compounds at 180 μL/well and incubated in a 5% carbon dioxide gas incubator at 37° C. for 72 hours. 20 μL of WST-8 (HCT116, Dojin) or WST-1 (HUVEC, Roche Diagnostics) was added to each well, and absorbance at 450 nm (reference wavelength: 650 nm) was measured.

[5] = tested on: human umbilical vein endothelial cells (HUVEC), VEGF-dependent proliferation; experiment: VEGF-dependent HUVEC proliferation inhibition assay; format: cell-based; settings: read-out: 50% proliferation inhibitory concentration (IC50 value) HUVEC (VEGF-dependent), 20 ng/mL of VEGF, 72 hours, WST-1
Method: as §1, §2

[6] = tested on: human umbilical vein endothelial cells (HUVEC), VEGF-independent proliferation; experiment: VEGF-independent HUVEC proliferation inhibition assay; format: cell-based; settings: read-out: 50% proliferation inhibitory concentration (IC50 value) HUVEC (VEGF-independent), vascular endothelial cell growth-promoting agent and heparin, 72 hours, WST-1
Method: as §1, §2

[7] = tested on: human colon cancer cell line HCT116 cells; experiment: Antitumor test, HCT116 transplanted subcutaneously in nude mice; format: in vivo, female Balb/c nude mouse; settings: 100 mg/kg oral, once a day for 12 days
Method: A cell suspension of human colon cancer cell line HCT116 cells was prepared using Hanks's solution, and 5.0×10^6 cells thereof were transplanted subcutaneously into the flank of each female Balb/c nude mouse. Oral administration of the test compound (once a day for 12 days) was started when the transplanted tumor volume reached 200 to 250 mm^3. The tumor volume was calculated by the expression: 0.5×(minor axis)^2×(major axis). The tumor growth inhibition ratio of tumor growth of the test compound to tumor growth of the reference group was determined.

[8] = tested on: choroidal neovascularization; experiment: Laser coagulation-induced murine choroidal neovascularization model; format: in vivo, C57BL6J mice; settings: for Average FA score: once a day for three days
Method: Laser coagulation was performed on two- to three-month-old C57BL6J mice (ten mice per group) by using a 408 nm semiconductor laser (DC-3000, Nidek). Both eyes were each irradiated at three positions with a spot size of 170 μm, an exposure time of 0.02 sec, and an output of 200 mW. The drug was orally administered once a day for three days beginning on the day of the laser coagulation. On the next day of the last administration, the mice were intravenously injected with 7 mg/kg of fluorescein. Five minutes after the injection, three fluorescent fundus images of each eye were taken (TRC-501X, Topcon) and stored in a CCD camera having 640×480 pixels as an image file. The total pixel brightness (0 to 1) in regions where fluorescein leakage was detected was used as an index (FA score) of choroidal neovascularization activity. The FA score was calculated by defining reference values such that the pixel brightness in a capillary region of a non-coagulated site is 0 and the pixel brightness on a main branch of the retinal blood vessel is 1.

Question: What does the source list for O=C(Nc1ccc(Oc2ccnc3[nH]ccc23)cc1)Nc1ccc(CCC(F)F)c(C(F)(F)F)c1 [Compound 12, 1-[4-(3,3-Difluoropropyl)-3-(trifluoromethyl)phenyl]-3-[4-(1H-pyrrolo[2,3-b]pyridin-4-yloxy)phenyl]urea]?
Answer: inhibition at 0.0064 µM [1]: 81%; AUC [2]: 247 µg·h/mL; Cmax [2]: 22700 ng/mL; solubility at 20 h [3]: 15 µg/mL (≈ 30.6 µM); IC50 [4]: 2.6 µM; IC50 [5]: 0.0051 µM; IC50 [6]: 0.27 µM; Tumor growth inhibition ratio (%) ([7]; last administration day): 100%; Decrease ratio in body weight (%) ([7]; maximum decrease): 6.5%; inhibition of the angiogenesis (in words) ([8]; 50 mg/kg): significantly inhibited; Average FA score ([8]; 50 mg/kg oral): 6.910; inhibition of the angiogenesis (in words) ([8]; 100 mg/kg): significantly inhibited; Average FA score ([8]; 100 mg/kg oral): 6.833
